We go through eight molecules from article PMC7400135, “3-(5-Nitrofuran-2-yl)prop-2-en-1-one Derivatives, with Potent Antituberculosis Activity, Inhibit A Novel Therapeutic Target, Arylamine N-acetyltransferase, in Mycobacteria” (Antibiotics, 2020).

In this test the test system is multidrug-resistant M. tuberculosis Peru isolate. The experiment in a line: microbe, parasite or virus in culture. In kind it is cell-based. The settings on record: Mycobacterium tuberculosis, 336 h, read-out: MIC MDR-TB.

Molecules are shown by their SMILES. Values after ≈ are worked out from the molar mass of the structure shown.

`O=C(/C=C/c1ccc([N+](=O)[O-])o1)c1ccc(N2CCOCC2)cc1` [Compound 1]: the MIC stood at 0.976 µg/mL (≈ 2.97 µM).

For `O=C(/C=C/c1ccc([N+](=O)[O-])o1)c1ccc(N2CCCCC2)cc1` [Compound 2], the MIC was 1.95 µg/mL (≈ 5.98 µM). As for `CCN(CC)c1ccc(C(=O)/C=C/c2ccc([N+](=O)[O-])o2)cc1` [Compound 3], the figure is 0.488 µg/mL (≈ 1.55 µM).

Regarding `CC[C@@H](CO)NCCN[C@@H](CC)CO` [Ethambutol], the MIC turned out to be 8 µg/mL (≈ 39.2 µM).

On to `NNC(=O)c1ccncc1` [Isoniazid, reference compound], for which the MIC is above 500 µg/mL. With `CN(Cc1cnc2nc(N)nc(N)c2n1)c1ccc(C(=O)N[C@@H](CCC(=O)O)C(=O)O)cc1` [Methotrexate, reference compound], the MIC is 250 µg/mL (≈ 550 µM).

`O=[N+]([O-])c1cn2c(n1)OC[C@@H](OCc1ccc(OC(F)(F)F)cc1)C2` [Pretomanid]: the MIC came out at 0.488 µg/mL (≈ 1.36 µM).

Regarding `CO[C@H]1/C=C/O[C@@]2(C)Oc3c(C)c(O)c4c(O)c(c(/C=N/N5CCN(C)CC5)c(O)c4c3C2=O)NC(=O)/C(C)=C\C=C\[C@H](C)[C@H](O)[C@@H](C)[C@@H](O)[C@@H](C)[C@H](OC(C)=O)[C@@H]1C` [Rifampicin], the MIC is above 500 µg/mL.
